Data from the NIST ThermoML archive (doi:10.1021/je9010486).

Experiment: cn = amount concentration of the nth substance listed, in mol/dm3
Settings: 101 kPa, Liquid

OC[C@@H](O)[C@@H](O)CO [meso-1,2,3,4-butanetetrol] + O
Settings	mass density, 293.15 K [kg/m3]	mass density, 303.15 K [kg/m3]	mass density, 313.15 K [kg/m3]	mass density, 323.15 K [kg/m3]	viscosity, 293.15 K [mPa·s]	viscosity, 303.15 K [mPa·s]	viscosity, 313.15 K [mPa·s]	viscosity, 323.15 K [mPa·s]
c1 = 0.1	1002.06	999.34	995.83	991.64	1.047	0.8541	0.6807	0.5663
c1 = 0.2	1005.36	1002.74	999.19	994.96	1.065	0.8706	0.7005	0.5849
c1 = 0.3	1009.37	1006.74	1003.09	998.81	1.088	0.8913	0.721	0.5986
c1 = 0.4	1012.65	1009.58	1006.3	1001.94	1.11	0.911	0.743	0.6171
c1 = 0.5	1016.16	1013.33	1009.63	1005.23	1.139	0.9366	0.7611	0.6351
c1 = 0.6	1019.38	1016.67	1012.43	1008.41	1.169	0.9634	0.7827	0.652
c1 = 0.7	1023.78	1020.8	1015.82	1012.27	1.213	1.002	0.8067	0.6734
c1 = 0.8	1026.82	1024.2	1019.15	1015.63	1.257	1.045	0.8339	0.6909
c1 = 0.9	1031.9	1027.8	1023.23	1019.38	1.306	1.087	0.861	0.7057
c1 = 1	1034.32	1031.18	1027.24	1022.64	1.338	1.137	0.8965	0.7251

OC[C@@H](O)[C@@H](O)[C@H](O)[C@@H](O)CO [D-sorbitol] + O
Settings	mass density, 293.15 K [kg/m3]	mass density, 303.15 K [kg/m3]	mass density, 313.15 K [kg/m3]	mass density, 323.15 K [kg/m3]	viscosity, 293.15 K [mPa·s]	viscosity, 303.15 K [mPa·s]	viscosity, 313.15 K [mPa·s]	viscosity, 323.15 K [mPa·s]
c1 = 0.1	1004.76	1002.12	998.58	994.32	1.088	0.8619	0.6892	0.5711
c1 = 0.2	1011.23	1008.52	1004.89	1000.54	1.113	0.8842	0.7109	0.5983
c1 = 0.3	1017.64	1014.83	1011.14	1006.75	1.168	0.9329	0.7399	0.6199
c1 = 0.4	1024.07	1021.15	1017.37	1012.93	1.22	0.9794	0.7849	0.6596
c1 = 0.5	1029.89	1026.88	1023.01	1018.5	1.275	1.029	0.8127	0.6841
c1 = 0.6	1036.94	1033.82	1029.9	1025.33	1.33	1.079	0.8573	0.7037
c1 = 0.7	1043.32	1040.11	1036.08	1031.44	1.394	1.136	0.8885	0.7392
c1 = 0.8	1049.36	1046.04	1041.95	1037.25	1.466	1.202	0.931	0.7779
c1 = 0.9	1056.16	1052.72	1048.48	1043.79	1.531	1.26	0.9849	0.8178
c1 = 1	1062.52	1058.99	1054.72	1049.92	1.608	1.329	1.03	0.8541

OC[C@@H](O)[C@@H](O)[C@H](O)[C@H](O)CO [mannitol] + O
Settings	mass density, 293.15 K [kg/m3]	mass density, 303.15 K [kg/m3]	mass density, 313.15 K [kg/m3]	mass density, 323.15 K [kg/m3]	viscosity, 293.15 K [mPa·s]	viscosity, 303.15 K [mPa·s]	viscosity, 313.15 K [mPa·s]	viscosity, 323.15 K [mPa·s]
c1 = 0.1	1004.82	1002.13	998.28	994.21	1.096	0.8694	0.6961	0.5782
c1 = 0.2	1010.89	1008.14	1004.5	999.82	1.143	0.9398	0.7468	0.6062
c1 = 0.3	1016.96	1014.15	1010.72	1005.23	1.203	0.986	0.7918	0.6356
c1 = 0.4	1023.03	1020.16	1016.94	1011.02	1.285	1.036	0.8201	0.6706
c1 = 0.5	1029.1	1026.17	1023.16	1017.33	1.336	1.085	0.8642	0.7104
c1 = 0.6	1035.17	1032.18	1029.38	1024.45	1.4	1.142	0.8954	0.7458
c1 = 0.7	1041.24	1038.19	1035.6	1030.32	1.472	1.197	0.9383	0.7849
c1 = 0.8	1047.31	1044.2	1041.82	1036.78	1.553	1.253	0.9934	0.8456
